Assay [1] concerns the target T1, CB1 receptor (Homo sapiens, UniProt P21554). Nature of the assay: Competition binding assay, [3H]-CP55,940 displacement, CB1 CHO-K1 membranes.
Procedure: (§1) CHO-K1 cells expressing CB1 or CB2 receptors (which were purchased from EuroScreen; Brussels, Belgium) were grown to confluency (20-40×10^6 cells) in 10 cm dishes. Cells were lysed by adding 10 mL/dish ice-cold hypotonic buffer (2.5 mM MgCl2, 50 mM HEPES, pH 7.4). Cell lysates were removed using a cell scraper and homogenized 30 seconds with a BioSpec Tissue Tearer™ (Racine, Wis.). Membranes were collected by centrifugation at 30,000 g for 15 min at 4° C. and pellets resuspended in hypotonic buffer to a final concentration of 1-3 mg/mL.
(§2) Membranes (CB1 or CB2 CHO-K1: 1 μg/well) were incubated at room temperature for 1 hour with 0.5 nM [^3H]-CP55,940 in 500 μL of assay buffer (5 mM MgCl2, 5 mg/mL BSA, 2.5 mM EDTA and 50 mM Tris-HCl, pH 7.4) in the presence of increasing concentrations of unlabeled competitors, e.g. WIN55, 212-2 (a CB1 receptor agonist available from Sigma-Aldrich, St. Louis, Mo.) or ligand of interest. The final concentration of DMSO was 5% . Reactions were terminated by rapid filtration using a 96-well filtration apparatus (Brandel, Gaithersburg, Md.) onto GE/C filter plates (PerkinElmer Life Sciences; Boston, Mass.) pretreated with polyethylenimine 0.5% (w/v). The plates were washed three times with 500 μL of ice-cold assay buffer. Filter plates were subsequently dried at 50° C. for 2-3 hours. Fifty microliters per well BetaScint 20 (PerkinElmer) scintillation cocktail was added and plates counted in a TopCount (PerkinElmer) for 1 min/well.
(§3) Data were analyzed using GraphPad PRISM™, v. […] The concentrations of unlabeled competitors that yield 50% displacement (IC50 values) were calculated from each curve by a non-linear regression analysis fined to a one-site model. In separate experiments, equilibrium dissociation constants (Kd values) were determined for each receptor. […] All Ki values are presented as mean±SEM of n determinations.
Assay [2] has as its target T1, CB1 receptor. Nature of the assay: GTPγ[35S] functional binding assay, CB1 membranes. The following applies: GTPγ[35S] binding; for EC50: n.a. = no activity detected at the highest concentration tested, read-out: CB1 EC 50. Details: Brussels, Belgium; host or cells: CHO-K1; Emax: reference not given here. It counts as biochemical. A general note: GTPγS resists hydrolysis and so accumulates on activated G proteins.

Another assay deals with CB2 receptor (Homo sapiens, UniProt P34972). Nature of the assay: Competition binding assay, [3H]-CP55,940 displacement, CB2 CHO-K1 membranes.

This is an account of results in patent US8084612B2, “Proline analogs as ligands for cannabinoid receptors” (Purdue Pharma L.P., priority 2008, dated 2011).

T1 sequence (P21554 whole entry): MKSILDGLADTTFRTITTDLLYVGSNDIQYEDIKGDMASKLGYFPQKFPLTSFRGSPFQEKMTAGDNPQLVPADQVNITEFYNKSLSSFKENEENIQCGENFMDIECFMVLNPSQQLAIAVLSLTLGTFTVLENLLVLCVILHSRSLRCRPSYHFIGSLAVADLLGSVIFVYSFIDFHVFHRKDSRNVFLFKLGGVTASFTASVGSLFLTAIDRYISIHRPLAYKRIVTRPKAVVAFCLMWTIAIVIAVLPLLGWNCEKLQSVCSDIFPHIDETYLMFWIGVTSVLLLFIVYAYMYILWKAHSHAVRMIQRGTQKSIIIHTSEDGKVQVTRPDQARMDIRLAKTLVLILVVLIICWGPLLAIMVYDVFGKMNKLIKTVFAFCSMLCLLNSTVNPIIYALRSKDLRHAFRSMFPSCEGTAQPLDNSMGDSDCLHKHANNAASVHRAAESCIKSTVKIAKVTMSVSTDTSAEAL
Sequence of CB2 receptor (P34972 whole entry): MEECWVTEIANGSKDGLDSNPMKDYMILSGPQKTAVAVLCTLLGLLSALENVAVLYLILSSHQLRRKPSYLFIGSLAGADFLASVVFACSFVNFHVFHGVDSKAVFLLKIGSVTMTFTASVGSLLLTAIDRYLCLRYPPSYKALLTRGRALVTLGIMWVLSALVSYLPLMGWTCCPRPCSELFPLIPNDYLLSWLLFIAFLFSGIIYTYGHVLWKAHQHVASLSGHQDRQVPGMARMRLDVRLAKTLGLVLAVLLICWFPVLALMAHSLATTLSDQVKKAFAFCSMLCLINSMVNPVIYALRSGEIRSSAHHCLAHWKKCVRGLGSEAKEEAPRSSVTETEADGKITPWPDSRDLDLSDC
Procedure for CB2 receptor: as §1, §2, §3

For the compound `O=C(Nc1sccc1C(=O)N1CCCCC1)[C@H]1CCCN1S(=O)(=O)c1ccccc1` [CAA(a)], at CB1 receptor [1], the Ki (in general, a dissociation constant, usually derived from enzyme kinetics or from competition with a known ligand) came to 1890 nM.

For `O=C(Nc1ccccc1C(=O)N1CCCCC1)[C@H]1CCCN1S(=O)(=O)c1ccccc1` [GAA(a)], the Ki on CB1 receptor [1] came to 1130 nM.

In turn, `O=C(Nc1sc2c(c1C(=O)N1CCCCC1)CCCCC2)[C@H]1CCCN1C(=O)c1ccccc1` [EAA(a)] gave a Ki at CB1 receptor [1] of 9290 nM.

The compound `O=C(Nc1sc2c(c1C(=O)N1CCCCC1)CCCCC2)[C@H]1CCCN1S(=O)(=O)c1cccs1` [AAF(a)] showed a Ki on CB1 receptor [1] of 7.3 nM. Further, on CB1 receptor [2], the Emax (commonly the size of the effect at its maximum, as opposed to the concentration needed) is 150% and the EC50 was 425 nM. On CB2 receptor, this compound came in with a Ki of 4.5 nM.

For `O=C(Nc1sc2c(c1C(=O)N1CCCCC1)CCCCC2)[C@H]1CCCN1S(=O)(=O)c1ccc(F)cc1` [AAB(a)], the Ki on CB1 receptor [1] was found to be 43.5 nM. Moreover, on CB1 receptor [2], the Emax came out at 68% and the EC50 is 1910 nM. In addition, the Ki at CB2 receptor came out at 35.8 nM.

The compound `O=C(Nc1sc2c(c1C(=O)N1CCCCC1)CCCCC2)[C@H]1CCCN1S(=O)(=O)c1ccccc1` [AAA(a)] registered an inhibition constant Ki at CB1 receptor [1] of 4.7 nM. Besides, on CB1 receptor [2], the Emax stood at 80% and the EC50 was 702 nM. The compound also had a Ki on CB2 receptor of 4.3 nM.

Turning to `O=C(Nc1ccsc1C(=O)N1CCCCC1)[C@H]1CCCN1S(=O)(=O)c1ccccc1` [DAA(a)], the Ki on CB1 receptor [1] turned out to be 1240 nM.

For the compound `CCOC(=O)c1c(NC(=O)[C@H]2CCCN2S(=O)(=O)c2ccccc2)sc2c1CCCCC2` [ABE(a)], the figures for the inhibition constant Ki at CB1 receptor [1] and at CB2 receptor were 15.1 nM and 11.5 nM, respectively. In addition, on CB1 receptor [2], the EC50 was more than 25000 nM.

Turning to `CS(=O)(=O)N1CCC[C@@H]1C(=O)Nc1sc2c(c1C(=O)N1CCCCC1)CCCCC2` [AAD(a)], the affinity at CB1 receptor [1] corresponds to a Ki of 2190 nM.

On to `Cc1ccc(S(=O)(=O)N2CCC[C@@H]2C(=O)Nc2sc3c(c2C(=O)N2CCCCC2)CCCCC3)cc1` [AAC(a)], for which the Ki on CB1 receptor [1] was determined as 261 nM; on CB2 receptor, 154 nM. For the same compound, the Emax on CB1 receptor [2] turned out to be 8%.

For the compound `O=C(Nc1sc2c(c1C(=O)N1CCCCC1)CCCCC2)[C@@H]1CCCN1S(=O)(=O)c1ccccc1` [AAA(b)], the affinity at CB1 receptor [1] corresponds to a Ki of 366 nM. Moreover, the Emax on CB1 receptor [2] is 8%.
